Results reported in ChEMBL document CHEMBL3046342, “Synthesis of steroidal thiazolidinones as antibacterial agents based on the in vitro and quantum chemistry calculation” (2013).
Converted amounts (≈) assume the structure as drawn.

What was measured:
Assay type in all cases: functional
Escherichia coli [1] = test: Antibacterial activity against Escherichia coli ATCC 49696 assessed as growth inhibition at 10 to 100 ug/uL after 18 hr by disk diffusion method
Salmonella typhimurium [2] = test: Antibacterial activity against Salmonella enterica subsp. enterica serovar Typhimurium ATCC 13311 assessed as growth inhibition at 10 to 100 ug/uL after 18 hr by disk diffusion method
Streptococcus pyogenes [3] = test: Antibacterial activity against Streptococcus pyogenes ATCC 12384 assessed as growth inhibition at 10 to 100 ug/uL after 18 hr by disk diffusion method
Staphylococcus aureus [4] = test: Antibacterial activity against Staphylococcus aureus ATCC 13150 assessed as growth inhibition at 10 to 100 ug/uL after 18 hr by disk diffusion method
Escherichia coli [5] = test: Antibacterial activity against Escherichia coli ATCC 49696 assessed as growth inhibition after 18 hr by microbroth dilution method; conditions: ATCC 49696, 18 h
Staphylococcus aureus [6] = test: Antibacterial activity against Staphylococcus aureus ATCC 13150 assessed as growth inhibition after 18 hr by microbroth dilution method; conditions: ATCC 13150, 18 h
Salmonella typhimurium [7] = test: Antibacterial activity against Salmonella enterica subsp. enterica serovar Typhimurium ATCC 13311 assessed as growth inhibition after 18 hr by microbroth dilution method; conditions: ATCC 13311, 18 h
Streptococcus pyogenes [8] = test: Antibacterial activity against Streptococcus pyogenes ATCC 12384 assessed as growth inhibition after 18 hr by microbroth dilution method; conditions: ATCC 12384, 18 h
Escherichia coli [9] = test: Antibacterial activity against Escherichia coli ATCC 49696 assessed as growth inhibition at 30 ug/disk after 18 hr by disk diffusion method; conditions: ATCC 49696, 18 h, read-out: IZ
Streptococcus pyogenes [10] = test: Antibacterial activity against Streptococcus pyogenes ATCC 12384 assessed as growth inhibition at 30 ug/disk after 18 hr by disk diffusion method; conditions: ATCC 12384, 18 h, read-out: IZ
Staphylococcus aureus [11] = test: Antibacterial activity against Staphylococcus aureus ATCC 13150 assessed as growth inhibition at 30 ug/disk after 18 hr by disk diffusion method; conditions: ATCC 13150, 18 h, read-out: IZ
Salmonella typhimurium [12] = test: Antibacterial activity against Salmonella enterica subsp. enterica serovar Typhimurium ATCC 13311 assessed as growth inhibition at 30 ug/disk after 18 hr by disk diffusion method; conditions: ATCC 13311, 18 h, read-out: IZ

Row | SMILES | inhibition zone (IZ) (Escherichia coli [1]) [mm] | inhibition zone (IZ) (Salmonella typhimurium [2]) [mm] | inhibition zone (IZ) (Streptococcus pyogenes [3]) [mm] | inhibition zone (IZ) (Staphylococcus aureus [4]) [mm] | MIC (Escherichia coli [5]) [µg/mL] | MIC (Staphylococcus aureus [6]) [µg/mL] | MIC (Salmonella typhimurium [7]) [µg/mL] | MIC (Streptococcus pyogenes [8]) [µg/mL] | zone of inhibition at 30 µg/disc (Escherichia coli [9]) [mm] | zone of inhibition at 30 µg/disc (Streptococcus pyogenes [10]) [mm] | zone of inhibition at 30 µg/disc (Staphylococcus aureus [11]) [mm] | zone of inhibition at 30 µg/disc (Salmonella typhimurium [12]) [mm]
1 | CC(=O)O[C@H]1CC[C@@]2(C)C(C1)/C(=N/NC(=S)NC1CCCCC1)C[C@H]1[C@@H]3CC[C@H]([C@H](C)CCCC(C)C)[C@@]3(C)CC[C@@H]12 (some centres undefined) | 13.6 | 10.6 | 12.2 | 11.6 | – | – | – | – | – | – | – | –
2 | CC(C)CCC[C@@H](C)[C@H]1CC[C@H]2[C@@H]3C/C(=N\NC(=S)NC4CCCCC4)C4C[C@@H](Cl)CC[C@]4(C)[C@H]3CC[C@]12C (some centres undefined) | 11.4 | 11.5 | 10.5 | 11.2 | – | – | – | – | – | – | – | –
3 | CC(C)CCC[C@@H](C)[C@H]1CC[C@H]2[C@@H]3C/C(=N\NC(=S)NC4CCCCC4)C4CCCC[C@]4(C)[C@H]3CC[C@]12C (some centres undefined) | 11.6 | 10.6 | 9.8 | 9.6 | – | – | – | – | – | – | – | –
4 | CC(=O)O[C@H]1CC[C@@]2(C)C(C1)/C(=N/N=C1\SCC(=O)N1C1CCCCC1)C[C@H]1[C@@H]3CC[C@H]([C@H](C)CCCC(C)C)[C@@]3(C)CC[C@@H]12 (some centres undefined) | 20.8 | 19.2 | 21.6 | 18.8 | 32 (≈ 50 µM) | 32 (≈ 50 µM) | 32 (≈ 50 µM) | 64 (≈ 100 µM) | – | – | – | –
5 | CC(C)CCC[C@@H](C)[C@H]1CC[C@H]2[C@@H]3C/C(=N\N=C4/SCC(=O)N4C4CCCCC4)C4C[C@@H](Cl)CC[C@]4(C)[C@H]3CC[C@]12C (some centres undefined) | 22.8 | 19.6 | 21.7 | 20.6 | 32 (≈ 51.9 µM) | 64 (≈ 104 µM) | 32 (≈ 51.9 µM) | 32 (≈ 51.9 µM) | – | – | – | –
6 | CC(C)CCC[C@@H](C)[C@H]1CC[C@H]2[C@@H]3C/C(=N\N=C4/SCC(=O)N4C4CCCCC4)C4CCCC[C@]4(C)[C@H]3CC[C@]12C (some centres undefined) | 14 | 13.2 | 14.2 | 13.8 | 128 (≈ 220 µM) | 64 (≈ 110 µM) | 512 (≈ 880 µM) | 128 (≈ 220 µM) | – | – | – | –
7 | CC1(C)S[C@@H]2[C@H](NC(=O)[C@H](N)c3ccc(O)cc3)C(=O)N2[C@H]1C(=O)O [AMOXICILLIN] | – | – | – | – | 32 (≈ 87.6 µM) | 32 (≈ 87.6 µM) | 32 (≈ 87.6 µM) | 32 (≈ 87.6 µM) | 20 | 18.2 | 17 | 17.2
